{"source": "patent US11186554B2", "about": "“Non-fused tricyclic compounds” (VIVACE THERAPEUTICS, INC., priority 2017, dated 2021)", "data": [{"tested_on": "firefly luciferase activity", "experiment": "Dual-Glo firefly/renilla luciferase reporter assay in cells", "assay_type": "cell-based", "conditions": "24 h, read-out: Firefly Luciferase IC50 (μM)", "units": {"IC50": "µM"}, "values": [{"smiles": "FC(F)OCCn1nnc(-c2ccccc2Nc2ccc(C(F)(F)F)cc2)n1", "note": "[Compound 183, 2-(2-(2-(difluoromethoxy)ethyl)-2H-tetrazol-5-yl)-N-(4-(trifluoromethyl)phenyl)aniline]", "IC50": "0.1 to 1"}, {"smiles": "OCCn1nnc(-c2c(F)cccc2Nc2ccc(C(F)(F)F)cc2)n1", "note": "[Compound 187, 2-(5-(2-fluoro-6-((4-(trifluoromethyl)phenyl)amino)phenyl)-2H-tetrazol-2-yl)ethan-1-ol]", "IC50": "< 0.1"}, {"smiles": "OCCn1nnc(-c2cccc(F)c2Nc2ccc(C(F)(F)F)cc2)n1", "note": "[Compound 188, 2-(5-(3-fluoro-2-((4-(trifluoromethyl)phenyl)amino)phenyl)-2H-tetrazol-2-yl)ethanol]", "IC50": "< 0.1"}, {"smiles": "OCCn1cnc(-c2ccccc2Nc2ccc(C(F)(F)F)cc2)c1", "note": "[Compound 197, 2-(4-(2-((4-(trifluoromethyl)phenyl)amino)phenyl)-1H-imidazol-1-yl)ethan-1-ol]", "IC50": "0.1 to 1"}, {"smiles": "FC(F)(F)c1ccc(Nc2ccccc2-c2nnn(CCOC3CCNCC3)n2)cc1", "note": "[Compound 198, 2-(2-(2-(piperidin-4-yloxy)ethyl)-2H-tetrazol-5-yl)-N-(4-(trifluoromethyl)phenyl)aniline]", "IC50": "0.1 to 1"}, {"smiles": "OCCn1nnc(-c2ccccc2Nc2ccc(Br)cc2)n1", "note": "[Compound 207, 2-(5-(2-((4-bromophenyl)amino)phenyl)-2H-tetrazol-2-yl)ethan-1-01]", "IC50": "0.1 to 1"}, {"smiles": "OCCn1nnc(-c2ccccc2Nc2ccc(Cl)cc2)n1", "note": "[Compound 208, 2-(5-(2-((4-chlorophenyl)amino)phenyl)-2H-tetrazol-2-yl)ethan-1-ol]", "IC50": "0.1 to 1"}]}, {"tested_on": "firefly luciferase activity", "experiment": "Dual-Glo firefly/renilla luciferase reporter assay in cells", "assay_type": "cell-based", "conditions": "24 hrs compound treatment, starting from 3 uM, 1:3 dilution, 10 points; read-out: Firefly Luciferase IC50", "units": {"IC50": "µM"}, "values": [{"smiles": "O=C1N[C@H](Cn2nnc(-c3ccccc3Nc3ccc(C(F)(F)F)cc3)n2)CO1", "note": "[Compound 158, (R)-4-((5-(2-((4-(trifluoromethyl)phenyl)amino)phenyl)-2H-tetrazol-2-yl)methyl)oxazolidin-2-one]", "IC50": "0.1 to 1"}, {"smiles": "CC(=O)N1CC(O)(Cn2nnc(-c3ccccc3Nc3ccc(C(F)(F)F)cc3)n2)C1", "note": "[Compound 161, 1-[3-hydroxy-3-[[5-[2-[4-(trifluoromethyl)anilino]phenyl]tetrazol-2-yl]methyl]azetidin-1-yl]ethanone]", "IC50": "0.1 to 1"}, {"smiles": "CC(=O)OC1(Cn2nnc(-c3ccccc3Nc3ccc(C(F)(F)F)cc3)n2)CN(C(C)=O)C1", "note": "[Compound 162, [1-acetyl-3-[[5-[2-[4-(trifluoromethyl)anilino]phenyl]tetrazol-2-yl]methyl]azetidin-3-yl]acetate]", "IC50": "1 to 5"}, {"smiles": "FC(F)(F)c1ccc(Nc2ccccc2-c2nnn(-c3cccnc3)n2)cc1", "note": "[Compound 165, 2-[2-(3-pyridyl)tetrazol-5-yl]-N-[4-(trifluoromethyl)phenyl]aniline]", "IC50": "1 to 5"}, {"smiles": "FC(F)(F)c1ccc(Nc2ccccc2-c2nnn(CC3COC3)n2)cc1", "note": "[Compound 166, 2-(2-(oxetan-3-ylmethyl)-2H-tetrazol-5-yl)-N-(4-(trifluoromethyl)phenyl) Aniline]", "IC50": "0.1 to 1"}, {"smiles": "O=C1NCC(Cn2nnc(-c3ccccc3Nc3ccc(C(F)(F)F)cc3)n2)N1", "note": "(centres unmarked) [Compound 167, 4-((5-(2-((4-(trifluoromethyl)phenyl)amino)phenyl)-2H-tetrazol-2-yl)methyl)imidazolidin-2-one]", "IC50": "0.1 to 1"}, {"smiles": "OC1(Cn2nnc(-c3ccccc3Nc3ccc(C(F)(F)F)cc3)n2)CCC1", "note": "[Compound 169, 1-((5-(2-((4-(Trifluoromethyl)phenyl)amino)phenyl)-2H-tetrazol-2-yl)methyl)cyclobutanol]", "IC50": "< 0.1"}, {"smiles": "FC(F)(F)c1ccc(Nc2ccccc2-c2nnn(CC3CCC3)n2)cc1", "note": "[Compound 170, 2-(2-(Cyclobutylmethyl)-2H-tetrazol-5-yl)-N-(4-(trifluoromethyl)phenyl)aniline]", "IC50": "0.1 to 1"}, {"smiles": "Cn1nnc(-c2ccccc2Nc2ccc(C(F)(F)F)cc2)n1", "note": "[Compound 171, 2-(2-methyltetrazol-5-yl)-N-[4-(trifluoromethyl)phenyl]aniline]", "IC50": "0.1 to 1"}, {"smiles": "OC1(Cn2nnc(-c3ccccc3Nc3ccc(C(F)(F)F)cc3)n2)CCN(c2ccccc2)C1", "note": "(centres unmarked) [Compound 172]", "IC50": "1 to 5"}, {"smiles": "COCCn1nnc(-c2ccccc2Nc2ccc(C(F)(F)F)cc2)n1", "note": "[Compound 173, 2-(2-(2-methoxyethyl)-2H-tetrazol-5-yl)-N-(4-(trifluoromethyl)phenyl)aniline]", "IC50": "< 0.1"}, {"smiles": "OCCn1nnc(-c2cc(F)ccc2Nc2ccc(C(F)(F)F)cc2)n1", "note": "[Compound 175, 2-[5-[5-fluoro-2-[4-(trifluoromethyl)anilino]phenyl]tetrazol-2-yl]ethanol]", "IC50": "< 0.1"}, {"smiles": "OC1(Cn2nnc(-c3ccccc3Nc3ccc(C(F)(F)F)cc3)n2)CCCN(c2ccccc2)C1", "note": "(centres unmarked) [Compound 176]", "IC50": "0.1 to 1"}, {"smiles": "[N-]=[N+]=Nc1ccc(Nc2ccccc2-c2nnn(CCO)n2)cc1", "note": "[Compound 179, 2-[5-[2-(4-azidoanilino)phenyl]tetrazol-2-yl]ethanol]", "IC50": "0.1 to 1"}, {"smiles": "O=C1NC(Cn2nnc(-c3ccccc3Nc3ccc(C(F)(F)F)cc3)n2)CO1", "note": "(centres unmarked) [Compound 180, 4-((5-(2-((4-(trifluoromethyl)phenyl)amino)phenyl)-2H-tetrazol-2-yl)methyl)oxazolidin-2-one]", "IC50": "0.1 to 1"}, {"smiles": "OCCn1nnc(-c2ccc(F)cc2Nc2ccc(C(F)(F)F)cc2)n1", "note": "[Compound 181, 2-[5-[4-fluoro-2-[4-(trifluoromethyl)anilino]phenyl]tetrazol-2-yl]ethanol]", "IC50": "< 0.1"}, {"smiles": "FC(F)(F)OCCn1nnc(-c2ccccc2Nc2ccc(C(F)(F)F)cc2)n1", "note": "[Compound 185, 2-(2-(2-(trifluoromethoxy)ethyl)-2H-tetrazol-5-yl)-N-(4-(trifluoromethyl)phenyl)aniline]", "IC50": "0.1 to 1"}, {"smiles": "OC1(Cn2nnc(-c3ccccc3Nc3ccc(C(F)(F)F)cc3)n2)COC1", "note": "[Compound 186, 3-((5-(2-((4-(trifluoromethyl)phenyl)amino)phenyl)-2H-tetrazol-2-yl)methyl) oxetan-3-ol]", "IC50": "< 0.1"}, {"smiles": "OCCn1cc(-c2ccccc2Nc2ccc(C(F)(F)F)cc2)nn1", "note": "[Compound 191, 2-(4-(2-((4-(trifluoromethyl)phenyl)amino)phenyl)-1H-1,2,3-triazol-1-yl)ethan-1-ol]", "IC50": "< 0.1"}, {"smiles": "C[C@H](O)[C@H](C)n1nnc(-c2ccccc2Nc2ccc(C(F)(F)F)cc2)n1", "note": "[Compound 192, (2S,3S)-3-(5-(2-((4-(trifluoromethyl)phenyl)amino)phenyl)-2H-tetrazol-2-yl)butan-2-ol]", "IC50": "< 0.1"}, {"smiles": "C[C@H]([C@@H](C)O)n1nnc(-c2ccccc2Nc2ccc(C(F)(F)F)cc2)n1", "note": "[Compound 193, (2R,3R)-3-(5-(2-((4-(trifluoromethyl)phenyl)amino)phenyl)-2H-tetrazol-2-yl)butan-2-ol]", "IC50": "< 0.1"}, {"smiles": "C[C@@H](O)[C@H](C)n1nnc(-c2ccccc2Nc2ccc(C(F)(F)F)cc2)n1", "note": "[Compound 194, (2R,3S)-3-(5-(2-((4-(trifluoromethyl)phenyl)amino)phenyl)-2H-tetrazol-2-yl)butan-2-ol]", "IC50": "< 0.1"}, {"smiles": "C[C@H](O)[C@@H](C)n1nnc(-c2ccccc2Nc2ccc(C(F)(F)F)cc2)n1", "note": "[Compound 195, (2S,3R)-3-(5-(2-((4-(trifluoromethyl)phenyl)amino)phenyl)-2H-tetrazol-2-yl)butan-2-ol]", "IC50": "< 0.1"}, {"smiles": "Cn1nc(-c2ccccc2Nc2ccc(C(F)(F)F)cc2)cc1CCO", "note": "[Compound 196, 2-(1-methyl-3-(2-((4-(trifluoromethyl)phenyl)amino)phenyl)-1H-pyrazol-5-yl)ethan-1-ol]", "IC50": "1 to 5"}, {"smiles": "O[C@@H]1CCC[C@@H]1n1nnc(-c2ccccc2Nc2ccc(C(F)(F)F)cc2)n1", "note": "[Compound 200, (1R,2S)-2-(5-(2-((4-(trifluoromethyl)phenyl)amino)phenyl)-2H-tetrazol-2-yl)cyclopentan-1-ol]", "IC50": "0.1 to 1"}, {"smiles": "O[C@H]1CCC[C@H]1n1nnc(-c2ccccc2Nc2ccc(C(F)(F)F)cc2)n1", "note": "[Compound 201, (1S,2R)-2-(5-(2-((4-(trifluoromethyl)phenyl)amino)phenyl)-2H-tetrazol-2-yl)cyclopentan-1-ol]", "IC50": "< 0.1"}, {"smiles": "CCOC(=O)Cn1cnc(-c2ccccc2Nc2ccc(C(F)(F)F)cc2)c1", "note": "[Compound 202, ethyl 2-(4-(2-((4-(trifluoromethyl)phenyl)amino)phenyl)-1H-imidazol-1-yl)acetate]", "IC50": "0.1 to 1"}, {"smiles": "OC1(Cn2nnc(-c3ccccc3Nc3ccc(C(F)(F)F)cc3)n2)CC1", "note": "[Compound 204, 1-((5-(2-((4-(trifluoromethyl)phenyl)amino)phenyl)-2H-tetrazol-2-yl)methyl) cyclopropan-1-ol]", "IC50": "< 0.1"}, {"smiles": "Cn1nc(-c2ccccc2Nc2ccc(C(F)(F)F)cc2)nc1CCO", "note": "[Compound 205, 2-(1-methyl-3-(2-((4-(trifluoromethyl)phenyl)amino)phenyl)-1H-1,2,4-triazol-5-yl)ethan-1-ol]", "IC50": "1 to 5"}, {"smiles": "CC(CO)c1nc(-c2ccccc2Nc2ccc(C(F)(F)F)cc2)nn1C", "note": "(centres unmarked) [Compound 206, 2-(1-methyl-3-(2-((4-(trifluoromethyl)phenyl)amino)phenyl)-1H-1,2,4-triazol-5-yl)propan-1-ol]", "IC50": "1 to 5"}, {"smiles": "CO[C@@H](C)[C@H](C)n1nnc(-c2ccccc2Nc2ccc(C(F)(F)F)cc2)n1", "note": "[Compound 210, 2-(2-((2S,3S)-3-methoxybutan-2-yl)-2H-tetrazol-5-yl)-N-(4-(trifluoromethyl)phenyl)aniline]", "IC50": "< 0.1"}, {"smiles": "CO[C@H](C)[C@H](C)n1nnc(-c2ccccc2Nc2ccc(C(F)(F)F)cc2)n1", "note": "[Compound 211, 2-(2-((2S,3R)-3-methoxybutan-2-yl)-2H-tetrazol-5-yl)-N-(4-(trifluoromethyl)phenyl)aniline]", "IC50": "0.1 to 1"}, {"smiles": "CO[C@@H](C)[C@@H](C)n1nnc(-c2ccccc2Nc2ccc(C(F)(F)F)cc2)n1", "note": "[Compound 212, 2-(2-((2R,3S)-3-methoxybutan-2-yl)-2H-tetrazol-5-yl)-N-(4-(trifluoromethyl)phenyl)aniline]", "IC50": "< 0.1"}, {"smiles": "CO[C@H](C)[C@@H](C)n1nnc(-c2ccccc2Nc2ccc(C(F)(F)F)cc2)n1", "note": "[Compound 213, 2-(2-((2R,3R)-3-methoxybutan-2-yl)-2H-tetrazol-5-yl)-N-(4-(trifluoromethyl)phenyl)aniline]", "IC50": "0.1 to 1"}]}]}
